Assays:
multiresistant HIV = details: patients, alovudine 7.5 mg qd add-on for four weeks
Procedure: A phase IIa trial was performed with 15 patients failing their current NRTI-containing regimens. Each patient had HIV RNA>1000 cp/ml, with at least 2 mutations in the viral RT induced by previous viral therapy, as established by genotypic assay.
The patents were administered qd 7.5 mg alovudine in a conventional carrier in addition to their current regimen for four weeks. The current regimes included various permutations of 3-5 HIV antivirals selected from 3TC, ddI, D4T, nevirapine, DMP, ritonavir, kaletra, saquinavir, amprenavir and indinavir, administered in their conventional dosage forms and regimens. Antiviral load evaluation was performed weekly and then four weeks after discontinuation of alovudine.
As this clinical trial was performed as an add-on therapy to the patients pre-existing regime, it will be appreciated that the alovudine qd was administered in a separate dosage form to the abacavir (typically bd) and other antvirals (typically administered […]).

HIV-1, IIIb = assay: microbe, parasite or virus in culture; assay type: cell-based; details: Human immunodeficiency virus 1, IIIB, MT4; alovudine alone at 0.003 uM, FIG. 3
Procedure: The antiviral effects of MIV-310 in combination with other NRTIs on HIV-1 replication in MT4 cells were examined by the median effect method (Chao and Talalay 1983). The assay was performed in microtiter plates with each well containing 10^5 cells and 20-50 tissue culture infective doses of HIV-1, IIIb. Each drug alone and a mixture of the drugs in a constant ratio were serially diluted in 2-fold steps and added to the wells in quadruplicates. The constant ratio is selected to reflect the relative potency of the drugs. […] The anti-viral effect was measured day 5 using the XTT calorimetric method.
A combination index (CI) less than 1 indicates synergism, CI equal to zero indicates addition and a CI greater than 1 indicates antagonism. Once again, the combinations have been tested at molar ratios reflecting their relative ED50s in cell culture.

Cc1cn([C@H]2C[C@H](F)[C@@H](CO)O2)c(=O)[nH]c1=O [alovudine, 3′-deoxy-3′-fluorothymidine]
serious adverse events (multiresistant HIV): no serious adverse events | tolerability (multiresistant HIV): generally well tolerated | transient mean increase in CD4 counts (multiresistant HIV): +52 counts/mm^3 | inhibition at 0.003 µM (HIV-1, IIIb): 27%

Reference: patent US20060084627A1, “Synergistic interaction of abacavir and alovudine” (Medivir AB, priority 2002, published 2006)
